Earlier results in patent EP1464334A1 (priority 2003, dated 2004).
Counter-ions that a name gives are not always drawn. Like-named read-outs stand apart in the source and are kept apart here.

Legend:
[1] = mouse, in vivo, po
[2] = rabbit, in vivo, po

CCN(CC)CCCC(C)Nc1c2ccc(Cl)cc2nc2ccc(OC)cc12 (centres unmarked) [Chinacrinhydrochlorid]
LD50-Dosis [1]: 557 mg/kg | LD50-Dosis [2]: 433 mg/kg
